Measured values: patent US20240383869A1, “ARYLACETYL INHIBITORS OF TG2 AND USES THEREOF” (UNIVERSITY OF OTTAWA, priority 2021, published 2024)
In brackets after ≈: the same amount, converted by molar mass.

What was measured:
hTG2 [1] = molecular target: T1, hTG2 (Homo sapiens, UniProt P21980); assay: In vitro GTP binding assay (BODIPY GTP-γ-S fluorescence); details: inhibitor 2×KI, 30 minutes at 25° C.; 3 μM BODIPY GTP-γ-S
T1 sequence (P21980 1-687): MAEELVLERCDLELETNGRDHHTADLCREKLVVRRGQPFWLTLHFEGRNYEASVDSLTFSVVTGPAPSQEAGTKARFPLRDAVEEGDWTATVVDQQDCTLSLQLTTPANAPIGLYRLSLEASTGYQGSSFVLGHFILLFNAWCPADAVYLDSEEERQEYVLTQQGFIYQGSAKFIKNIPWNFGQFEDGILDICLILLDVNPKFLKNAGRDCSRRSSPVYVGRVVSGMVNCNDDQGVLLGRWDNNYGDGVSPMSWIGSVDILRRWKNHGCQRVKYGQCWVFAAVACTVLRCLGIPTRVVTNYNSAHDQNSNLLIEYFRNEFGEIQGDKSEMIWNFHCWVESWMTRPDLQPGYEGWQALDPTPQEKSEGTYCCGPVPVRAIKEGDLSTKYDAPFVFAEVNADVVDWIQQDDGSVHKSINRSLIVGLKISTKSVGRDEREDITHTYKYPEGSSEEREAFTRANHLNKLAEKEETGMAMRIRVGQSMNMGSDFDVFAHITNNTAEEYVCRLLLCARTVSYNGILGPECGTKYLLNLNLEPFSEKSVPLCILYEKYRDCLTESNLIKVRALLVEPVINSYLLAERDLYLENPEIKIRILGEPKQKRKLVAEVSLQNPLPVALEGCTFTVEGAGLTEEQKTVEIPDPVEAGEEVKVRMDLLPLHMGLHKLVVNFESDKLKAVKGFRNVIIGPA
Procedure: Previously we proposed a mechanism of action for the NC9, VA4 and AA9 inhibitors based on their ability to react covalently with the open conformation of TG2, locking the enzyme in that conformation and thereby abolishing the enzyme's ability to bind GTP and act as a G-protein. […] We used the same in vitro GTP binding assay to measure the ability of representative phenylacetyl inhibitors 67 and 72 to abolish GTP binding, as follows:
In vitro GTP binding assay. GTP binding was measured using a method similar to that reported previously (McEwen, D. P. et al., “Fluorescent BODIPY-GTP analogs: Real-time measurement of nucleotide binding to G proteins.” Anal. Biochem. 2001, 291 (1), 109-117). […] The buffer was then exchanged to 100 mM MOPS (pH=7.0), 1 mM EGTA and 5 mM MgCl2 to remove calcium via dialysis using a 10-kDa molecular weight cut off membrane. The fluorescent GTP analog was added to give a final concentration of 3.0 μM and fluorescence was measured on a microplate reader after 10 minutes of incubation (Ex/Em: 490/520 nm).

Kinetic solubility = assay type: physicochemical; details: kinetic from dmso stock
hTG2 [2] = molecular target: T1, hTG2; details: shown previously; cited from earlier work

For `C=CC(=O)NCCCC[C@H](NC(=O)Cc1ccccc1F)C(=O)N1CCN(C(=O)c2cccc3ccccc23)CC1` [Inhibitor 72, (S)-N-(6-(4-(1-naphthoyl)piperazin-1-yl)-5-(2-(2-fluorophenyl)acetamido)-6-oxohexyl)acrylamide], the “inhibition of GTP binding of hTG2” value (hTG2 [1]) was “abolished the GTP binding ability”.
In the case of `C=CC(=O)NCCCC[C@H](NC(=O)Cc1ccccc1C)C(=O)N1CCN(C(=O)c2cccc3ccccc23)CC1` [Inhibitor 74, (S)-N-(6-(4-(1-naphthoyl)piperazin-1-yl)-5-(2-(2-methylphenyl)acetamido)-6-oxohexyl)acrylamide], the solubility kinetic (Kinetic solubility) is reported as 39 µM (≈ 21.6 µg/mL).
In the case of `C=CC(=O)NCCCC[C@H](NC(=O)OCc1ccccc1)C(=O)N1CCN(C(=O)c2cccc3ccccc23)CC1` [AA9, reference compound], the “suppression of TG2 binding of GTP-γ-S-FL BODIPY” value (hTG2 [2]) is listed as “suppress the ability of TG2 to bind GTP-γ-S-FL BODIPY”.
